{
  "source": "paper PMC4473678",
  "about": "“Swedish mutant APP-based BACE1 binding site peptide reduces APP β-cleavage and cerebral Aβ levels in Alzheimer’s mice” (Scientific Reports, 2015)",
  "key": {"[1]": {"test_system": "recombinant BACE1 protein", "assay": "Immunoprecipitation/WB of peptide-BACE1 binding, cell-free", "conditions": "10 μg biotin-labeled peptide with 10 μL recombinant BACE1 (1.0 U/mL), 4 h, 37 °C; anti-BACE1 IP/anti-biotin WB and reverse; listed as TAT-APPsweBBP", "description": "In order to confirm that APPsweBBP containing the β-cleavage site could bind to and be consequently proteolyzed by BACE1, 10 μg of biotin-labeled TAT-APPsweBBP was incubated with or without 10 μL of recombinant BACE1 protein (1.0 U/mL) in BACE1 reaction buffer for 4 h at 37 °C and then subjected to WB analysis as described previously. In addition, we performed immunoprecipitation (IP) and WB analyses of this mixture with anti-BACE1 and anti-biotin antibodies to confirm that TAT-APPsweBBP, but not TAT, specifically binds to BACE1."}, "BACE1 in CHO/APPwt cells": {"test_system": "BACE1 in CHO/APPwt cells", "assay": "Co-localization with BACE1 in CHO/APPwt cells (immunocytochemistry)", "format": "cell-based, Chinese hamster", "conditions": "biotin-labeled peptide 20 μM, 30 min, anti-BACE1 and anti-biotin staining", "description": "(§1) Following application of blocking buffer, these cells were stained with mouse anti-BACE1 and anti-biotin antibodies overnight at 4 °C for immunocytochemical analysis. In order to determine the inhibitory effects of TAT-APPsweBBP on BACE1-mediated APP β-cleavage and subsequent Aβ production, both CHO/APPwt and CHO/APPswe cells were plated in 24 well-plates (3×10^5/well) and treated with TAT-APPsweBBP at 0 to 20 μM for 24 h. The cultured media were collected for Aβ and sAPPα analysis by ELISA and WB. Cell lysates were also prepared for analysis of APP amyloidogenic processing by WB."}, "CHO/APPwt cells": {"test_system": "CHO/APPwt cells", "assay": "APP processing in CHO/APPwt cells (WB, ELISA)", "format": "cell-based, Chinese hamster", "conditions": "0 to 20 μM, 24 h", "description": "Chinese hamster ovary (CHO) cells engineered to express human APPwt (CHO/APPwt cells) or human APPswe (CHO/APPswe cells) were kindly provided by Dr. Stefanie Hahn and Dr. Sascha Weggen (University of Heinrich Heine, Dusseldorf, Germany). As described in our recent report, these cells were cultured in Dulbecco’s modified Eagle’s medium with 10% fetal bovine serum, 1 mM sodium pyruvate and 100 U/mL of penicillin/streptomycin.\nas §1\n(§2) WB analysis was performed as previously described. Briefly, the proteins from the various cell-free suspensions, cell lysates and brain homogenates were electrophoretically separated using 10% bicine/tris gel (8 M urea) for proteins less than 5 kD or 10% tricine/tris gels for larger proteins. Electrophoresed proteins were transferred to polyvinylidene difluoride membranes (Bio-Rad, Richmond, CA), washed and blocked for 2 h at room temperature in Tris-buffered saline containing 5% (w/v) nonfat dry milk (TBS/NFDM). After blocking, membranes were hybridized for 2 h with various primary antibodies, washed and incubated for 1 h with the appropriate HRP-conjugated secondary antibody in TBS/NFDM. Blots were developed using the luminol reagent (Thermo Fisher Scientific, Waltham, MA).\n(§3) Mouse brains were homogenized in ice-cold lysis buffer for 30 s using a Minilys tissue homogenizer (Bertin Technologies, Montigny-le-Bretonneux, France) set at high speed, allowed to stand for 15 min at 4 °C, and centrifuged at 15000 rpm for 30 min. Soluble Aβ1−40/42 species and sAPPα were directly detected in cultured cell media or brain homogenates using the Aβ1−40/42 (Invitrogen) and sAPPα ELISA kits (IBL-America, Minneapolis, MN). Detergent-insoluble total […] species were detected in brain by extracting pellets in 5 M guanidine HCl buffer, followed by a 1:20 dilution in lysis buffer."}, "5XFAD mice [2]": {"test_system": "5XFAD mice", "assay": "Cerebral Aβ ELISA, 5XFAD mice", "format": "in vivo, mouse", "conditions": "100 nmol/kg i.p. daily, 8 weeks, versus TAT or PBS, *P < 0.05, **P < 0.01, ***P < 0.005, listed as TAT-APPsweBBP", "description": "Transgenic AD mice [5XFAD; B6SJL-Tg(APPSwFlLon,PSEN1*M146L*L286V) 6799Vas/Mmjax] at 2.5 months of age were obtained from the Jackson Laboratory (Bar Harbor, ME) and housed and maintained in the Animal Facility of College of Medicine at University of South Florida (USF). The mice at 3.5 months of age were treated with TAT-APPsweBBP, TAT peptide (100 nmol/kg in 100 μL PBS) or PBS (100 μL) daily by intraperitioneal injection (i.p.) for eight consecutive weeks. The mice were subjected to behavioral testing after 8-week treatment and then euthanized for immunohistochemical, WB and ELISA analyses. Animals were housed and maintained at USF and all experiments were in compliance with protocols approved by USF Institutional Animal Care and Use Committee. […]\nas §3"}, "5XFAD mice [3]": {"test_system": "5XFAD mice", "assay": "WB of APP processing products in brain homogenates, 5XFAD mice", "format": "in vivo, mouse", "conditions": "8 weeks", "description": "(§4) Transgenic AD mice [5XFAD; B6SJL-Tg(APPSwFlLon,PSEN1*M146L*L286V) 6799Vas/Mmjax] at 2.5 months of age were obtained from the Jackson Laboratory (Bar Harbor, ME) and housed and maintained in the Animal Facility of College of Medicine at University of South Florida (USF). The mice at 3.5 months of age were treated with TAT-APPsweBBP, TAT peptide (100 nmol/kg in 100 μL PBS) or PBS (100 μL) daily by intraperitioneal injection (i.p.) for eight consecutive weeks. The mice were subjected to behavioral testing after 8-week treatment and then euthanized for immunohistochemical, WB and ELISA analyses. Animals were housed and maintained at USF and all experiments were in compliance with protocols approved by USF Institutional Animal Care and Use Committee. All methods were performed in accordance with relevant guidelines and regulations.\nas §2"}, "5XFAD mice [4]": {"test_system": "5XFAD mice", "assay": "β-amyloid immunohistochemistry (4G8), 5XFAD mice", "format": "in vivo, mouse", "conditions": "100 nmol/kg i.p. daily, 8 weeks, RSC, EC and H regions, n = 10, 5 female/5 male, listed as TAT-APPsweBBP", "description": "as §4\nFor paraffin brain tissues, we sectioned five coronal sections per region with a 100-μm interval and a thickness of 5-μm for retrosplenial cortex (RSC), entorhinal cortex (EC), and hippocampus (H), located at bregma −2.92 to −3.64 mm. […] Images were acquired as digitized tagged-image format files (to retain maximum resolution) using a BX60 microscope with an attached CCD camera system (DP-70, Olympus, Tokyo, Japan), and digital images were routed into a Windows PC for quantitative analyses using SimplePCI software (Hamamatsu Photonics, Hamamatsu, Shizuoka, Japan). […]"}, "brain of 5XFAD mice": {"test_system": "brain of 5XFAD mice", "assay": "BBB penetration after i.p. administration (brain section confocal imaging)", "method": "5XFAD mice at 2 months of age (n = 5, female) were treated intraperitoneally with biotin-labeled TAT-APPsweBBP or APPsweBBP (100 nmol/kg) daily for 5 days and then euthanized 4 h after the last injection. Brain tissues were removed, sectioned and stained with anti-BACE1 and anti-biotin antibodies.\nFixed cell cultures and brain sections were stained with indicated antibodies and then treated with donkey anti-mouse IgG conjugated with Alexa Fluor 488 (1:200) or goat anti-rabbit IgG conjugated with Alexa Fluor 594 (1:200; Invitrogen, Carlsbad, CA). The slides were then washed, mounted with DAPI medium (Vector Laboratories, Burlingame, CA) and visualized with an Olympus FV1000 confocal microscope (Tokyo, Japan)."}, "[5]": {"conditions": "*P < 0.05, **P < 0.01, three independent experiments, each triplicated"}, "[6]": {"conditions": "WB 6E10, listed as TAT-APPsweBBP"}},
  "note": "“Also recorded” adds a separate entry of the source.",
  "data": [
    {"sequence": "YGRKKRRQRRREISEVNLDAEFR", "values": [
      {"measurement": "binding to BACE1 (co-immunoprecipitation)", "setting": "[1]", "result": "binds to BACE1 protein; also recorded: strongly binds to"},
      {"measurement": "co-localization with BACE1", "setting": "BACE1 in CHO/APPwt cells; listed as TAT-APPsweBBP", "result": "much more strongly co-localized with BACE1 protein compared to APPsweBBP"},
      {"measurement": "co-localization with BACE1", "setting": "BACE1 in CHO/APPwt cells; listed as TAT-APPsweBPP", "result": "strong association with BACE1 in both cytoplasmic membrane and intracellular compartments"},
      {"measurement": "holo APP expression by WB", "setting": "CHO/APPwt cells", "result": "leaving holo APP expression unaltered"},
      {"measurement": "sAPPα by WB", "setting": "CHO/APPwt cells", "result": "promoting"},
      {"measurement": "Aβ1−40/42 by ELISA", "setting": "CHO/APPwt cells; [5]", "result": "significantly decreased"},
      {"measurement": "sAPPα by ELISA", "setting": "CHO/APPwt cells; [5]", "result": "increased sAPPα levels in a dose-dependent manner"},
      {"measurement": "Aβ by WB", "setting": "CHO/APPwt cells; listed as TAT-APPsweBBP", "result": "markedly decreased Aβs; also recorded: markedly inhibited"},
      {"measurement": "α-CTF by WB", "setting": "CHO/APPwt cells; listed as TAT-APPsweBBP", "result": "increased α-CTF; also recorded: promoting α-CTF"},
      {"measurement": "detergent-insoluble Aβ1−40/42 in brain", "setting": "5XFAD mice [2]", "result": "statistically significant decreases; also recorded: significantly reduced"},
      {"measurement": "detergent-soluble Aβ1−40/42 in brain", "setting": "5XFAD mice [2]", "result": "statistically significant decreases; also recorded: significantly reduced"},
      {"measurement": "total cerebral soluble Aβ (Aβs) by WB", "setting": "5XFAD mice [3]; [6]", "result": "much lower levels; also recorded: reduced total cerebral soluble Aβ"},
      {"measurement": "β-CTF by WB", "setting": "5XFAD mice [3]; [6]", "result": "much lower levels; also recorded: reduced"},
      {"measurement": "band density ratio of β-CTF to holo-APP", "setting": "5XFAD mice [3]; densitometry, versus TAT and PBS, **P < 0.01", "result": "significantly reduces the band density ratios of β-CTF to holo-APP, compared to TAT- and PBS-treatments (**P < 0.01)"},
      {"measurement": "total APP expression by WB", "setting": "5XFAD mice [3]; listed as TAT-APPsweBBP", "result": "without notable alteration on total APP expression; also recorded: without significantly altering total APP expression"},
      {"measurement": "β-amyloid plaques / 4G8 immunoreactive area", "setting": "5XFAD mice [4]", "result": "greatly reduced; also recorded: markedly reduced β-amyloid plaques; also recorded: significant differences between TAT-APPsweBBP and TAT peptide treatment groups (**P < 0.01)"},
      {"measurement": "association with BACE1 in brain", "setting": "brain of 5XFAD mice; 5XFAD mice, 2 months, n = 5, female, biotin-labeled peptide 100 nmol/kg i.p. daily 5 days, 4 h after last injection", "result": "more highly associates with BACE1 compared to APPsweBBP"},
      {"measurement": "BBB penetration / brain distribution", "setting": "brain of 5XFAD mice; 5XFAD mice, 2 months, n = 5, female, biotin-labeled peptide 100 nmol/kg i.p. daily 5 days, 4 h after last injection, confocal images, listed as TAT-APPsweBBP", "result": "highly penetrated the BBB and was detectable in both the cortical and hippocampal regions; also recorded: more permeable across the BBB; also recorded: greater distribution of TAT-APPsweBBP than APPsweBBP into cortical and hippocampal regions"},
      {"measurement": "BBB penetration (Fig. S4 legend)", "setting": "brain of 5XFAD mice; peripheral injection, Fig. S4", "result": "freely enters brain microvascular endothelial cells"}
    ]}
  ]
}
